Assay results: US20240092773A1, “DIHYDRO-CYCLOPENTA-ISOQUINOLINE SULFONAMIDES DERIVATIVES” (UCB Biopharma SRL, priority 2019, published 2024)

Target: IgE-Tb binding to soluble IgE receptor FcεR1α (Y131A mutation) (Homo sapiens, UniProt P01854, N146Q/N252Q)
Assay: In vitro FRET assay: inhibition of binding of IgE-Tb to receptor FcεR1α-Y131A-AF488
Details: read-out: FRET IC50 range

Sequence of IgE-Tb binding to soluble IgE receptor FcεR1α (Y131A mutation) (P01854 whole entry N146Q/N252Q, looked up): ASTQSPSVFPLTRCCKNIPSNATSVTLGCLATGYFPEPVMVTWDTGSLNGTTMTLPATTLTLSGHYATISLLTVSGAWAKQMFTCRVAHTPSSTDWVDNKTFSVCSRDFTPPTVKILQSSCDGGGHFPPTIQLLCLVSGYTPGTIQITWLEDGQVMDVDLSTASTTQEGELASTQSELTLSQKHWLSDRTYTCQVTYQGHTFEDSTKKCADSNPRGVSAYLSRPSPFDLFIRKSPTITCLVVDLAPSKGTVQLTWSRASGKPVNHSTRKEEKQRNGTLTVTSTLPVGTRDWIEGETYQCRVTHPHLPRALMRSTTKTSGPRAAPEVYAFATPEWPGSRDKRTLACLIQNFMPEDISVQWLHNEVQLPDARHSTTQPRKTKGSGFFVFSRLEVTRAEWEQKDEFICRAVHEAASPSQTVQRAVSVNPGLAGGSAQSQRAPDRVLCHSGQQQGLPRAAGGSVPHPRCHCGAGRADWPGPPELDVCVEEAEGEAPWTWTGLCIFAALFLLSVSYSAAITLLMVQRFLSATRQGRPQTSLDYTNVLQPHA

Row | SMILES | IC50
1 | Cc1cc(CNC(=O)NC2CCc3cc(S(=O)(=O)NCC(C)C)c4cc(C5CC5)ncc4c32)n(C)n1 (stereo not drawn) [Example 46, 1-[3-cyclopropyl-5-(2-methylpropylsulfamoyl)-8,9-dihydro-7H-cyclopenta[h]isoquinolin-9-yl]-3-[(2,5-dimethylpyrazol-3-yl)methyl]urea] | 100 to 2000 nM
2 | CC(C)(F)CNS(=O)(=O)c1cc2c(c3cnc(C4CC4)cc13)CCC2Nc1cccnc1 (stereo not drawn) [Example 31, 3-cyclopropyl-N-(2-fluoro-2-methylpropyl)-7-(pyridin-3-ylamino)-8,9-dihydro-7H-cyclopenta[h]isoquinoline-5-sulfonamide] | 10 to 50 nM
3 | CNC(=O)[C@H]1CCCN1[C@@H]1CCc2c1cc(S(=O)(=O)NCC(C)(C)F)c1cc(C3CC3)ncc21 (relative stereo) [Example 58, (2R)-1-[(7R*)-3-cyclopropyl-5-[(2-fluoro-2-methylpropyl)sulfamoyl]-8,9-dihydro-7H-cyclopenta[h]isoquinolin-7-yl]-N-methylpyrrolidine-2-carboxamide] | 100 to 2000 nM
